In patent US5760235A, “Anticoagulant peptide derivatives and pharmaceutical compositions containing the same as well as a process for preparation thereof” (Gyogyszerkutato Intezet Kft., priority 1992, dated 1998):

Key:
[1] = test system: citrated blood plasma; test: In vitro thrombin time (TT), citrated blood plasma; assay type: biochemical, human; set-up: unit not given here
Method: (§1) The antithrombin activity of the compounds of general formula (I) was determined by the usual method [Bagdy et al.: Thromb Haemostas 67, 325-330 (1992)] by measuring whole blood clotting time (WBCT), thrombin time (TT) and activated partial thromboplastin time (APTT). The in vitro activity of some compounds of the invention assayed on native human blood (non-anticoagulated clotting) (WBCT) and on citrated blood plasma (TT and APTT) is presented in Table 1.
(§2) ^2 WBCT = whole blood clotting time, TT = thrombin time, APTT =
(§3) activated partial thromboplastin time parameter. The figures represent
(§4) concentrations of the compounds required to double the clotting time of
(§5) native whole human blood or of citrated blood plasma.

[2] = test system: fibrinolysis induced by tissue plasminogen activator; test: Fibrinolysis induced by tissue plasminogen activator, thromboelastogram; assay type: biochemical
Text: The compounds of the general formula (I) inhibit clot formation without interfering with the natural lysis of blood clots in the body, e.g. fibrinolysis. […] Thromboelastography. In: Bang N. U., F. K. Beller, E. Deutsch, E. F. Mamman eds. Thrombosis and Bleeding Disorders. Theory and Methods. Academic Press, London, 1971: 70-76].

[3] = test system: citrated plasma; test: In vivo antithrombin effect in rabbits: activated partial thromboplastin time (APTT)
Method: (§6) The in vivo antithrombin effect of the compounds of general formula (I) was treated in rabbits by a known method [Bagdy et al: Thromb Haemost 67, 357-365 (1992)]. The compounds were applied in a dose of 0.5-3.0 mg/kg s.c. and 5-15 mg/kg p.o. The effect was already detectable 15-30 minutes after drug administration, peak effect was attained after 90-120 minutes but the therapeutic effect was dose dependently maintained during 3 to longer than 5 hours.
(§7) The in vivo antithrombin effect of 3-cyclohexyl-D-lactyl-L-prolyl-L-arginine aldehyde hemisulfate (Example 7.) is presented in detail in Tables 2 and 3. The compound was administered in doses of 10 and 15 mg/kg, resp., p.o. and the blood samples taken from the ear-vein of the animals were assayed in every 30 minutes. The whole blood clotting time (WBCT) and the inhibition of whole blood platelet aggregation induced by thrombin (IWBA) were determined. Furthermore the citrated plasma thrombin time (TT) of the blood sample and the activated partial thromboplastin time (APTT) were measured, too. The WBCT and APTT values are presented in Table 2 and the TT and IWBA values in Table 3.

[4] = test system: native whole human blood; test: In vitro whole blood clotting time (WBCT), native human blood; assay type: biochemical; set-up: unit not given here
Method: as §1, §2, §3, §4, §5

[5] = test system: citrated plasma; test: In vivo antithrombin effect in rabbits: citrated plasma thrombin time (TT)
Method: as §6, §7

[6] = test system: citrated blood plasma; test: In vitro activated partial thromboplastin time (APTT), citrated blood plasma; assay type: biochemical, human; set-up: unit not given here
Method: as §1, §2, §3, §4, §5

[7] = test system: whole blood platelet aggregation induced by thrombin; test: In vivo antithrombin effect in rabbits: inhibition of whole blood platelet aggregation induced by thrombin (IWBA)
Method: as §6, §7

[8] = test system: whole blood clotting; test: In vivo antithrombin effect in rabbits: whole blood clotting time (WBCT)
Method: as §6, §7

N=C(N)NCCC[C@@H](C=O)NC(=O)[C@@H]1CCCN1C(=O)[C@H](O)CC1CCCCC1.N=C(N)NCCC[C@@H](C=O)NC(=O)[C@@H]1CCCN1C(=O)[C@H](O)CC1CCCCC1.O=S(=O)(O)O [Example 7, 3-Cyclohexyl-D-lactyl-L-prolyl-L-arginine aldehyde hemisulfate]
TT: concentration required to double the clotting time [1]: 0.072 | inhibitory effect on fibrinolysis induced by tissue plasminogen activator [2]: only negligible inhibitory effect | APTT ([3]; 10 mg/kg p.o., time 0 min): 27.7 ± 1.2 s | APTT ([3]; 10 mg/kg p.o., time 30 min): 58.9 ± 9.0 s | APTT ([3]; 10 mg/kg p.o., time 60 min): 77.6 ± 14.6 s | APTT ([3]; 10 mg/kg p.o., time 90 min): 65.1 ± 8.4 s | APTT ([3]; 10 mg/kg p.o., time 120 min): 55.1 ± 11.4 s | APTT ([3]; 10 mg/kg p.o., time 150 min): 52.1 ± 6.6 s | APTT ([3]; 10 mg/kg p.o., time 180 min): 53.8 ± 8.5 s | APTT ([3]; 10 mg/kg p.o., time 210 min): 48.6 ± 3.8 s | APTT ([3]; 10 mg/kg p.o., time 240 min): 47.7 ± 7.4 s | APTT ([3]; 10 mg/kg p.o., time 270 min): 44.4 ± 3.7 s | APTT ([3]; 10 mg/kg p.o., time 300 min): 43.7 ± 5.0 s | APTT ([3]; 15 mg/kg p.o., time 0 min): 32.6 ± 4.6 s | APTT ([3]; 15 mg/kg p.o., time 30 min): 115.0 ± 36.6 s | APTT ([3]; 15 mg/kg p.o., time 60 min): 150.4 ± 30.9 s | APTT ([3]; 15 mg/kg p.o., time 90 min): 170.3 ± 18.5 s | APTT ([3]; 15 mg/kg p.o., time 120 min): 145.6 ± 22.7 s | APTT ([3]; 15 mg/kg p.o., time 150 min): 149.2 ± 22.0 s | APTT ([3]; 15 mg/kg p.o., time 180 min): 169.0 ± 23.0 s | APTT ([3]; 15 mg/kg p.o., time 210 min): 137.7 ± 25.8 s | APTT ([3]; 15 mg/kg p.o., time 240 min): 127.4 ± 25.7 s | APTT ([3]; 15 mg/kg p.o., time 270 min): 133.4 ± 24.7 s | APTT ([3]; 15 mg/kg p.o., time 300 min): 92.8 ± 18.4 s | WBCT: concentration required to double the clotting time [4]: 0.32 | TT ([5]; 10 mg/kg p.o., time 0 min): 18.4 ± 2.1 s | TT ([5]; 10 mg/kg p.o., time 30 min): 317.1 ± 123.0 s | TT ([5]; 10 mg/kg p.o., time 60 min): 416.0 ± 107.2 s | TT ([5]; 10 mg/kg p.o., time 90 min): 444.7 ± 108.6 s | TT ([5]; 10 mg/kg p.o., time 120 min): 264.6 ± 101.3 s | TT ([5]; 10 mg/kg p.o., time 150 min): 201.1 ± 109.9 s | TT ([5]; 10 mg/kg p.o., time 180 min): 182.7 ± 113.6 s | TT ([5]; 10 mg/kg p.o., time 210 min): 123.0 ± 65.3 s | TT ([5]; 10 mg/kg p.o., time 240 min): 141.5 ± 81.3 s | TT ([5]; 10 mg/kg p.o., time 270 min): 65.4 ± 25.7 s | TT ([5]; 10 mg/kg p.o., time 300 min): 41.8 ± 11.4 s | TT ([5]; 15 mg/kg p.o., time 0 min): 18.9 ± 2.1 s | TT ([5]; 15 mg/kg p.o., time 30 min): 371.2 ± 142.3 s | TT ([5]; 15 mg/kg p.o., time 60 min): 528.3 ± 72.9 s | TT ([5]; 15 mg/kg p.o., time 90 min): 578.8 ± 21.5 s | TT ([5]; 15 mg/kg p.o., time 120 min): > 600.0 ± 0 s | TT ([5]; 15 mg/kg p.o., time 150 min): 549.6 ± 34.0 s | TT ([5]; 15 mg/kg p.o., time 180 min): 380.7 ± 116.0 s | TT ([5]; 15 mg/kg p.o., time 210 min): 342.1 ± 121.2 s | TT ([5]; 15 mg/kg p.o., time 240 min): 340.9 ± 137.0 s | TT ([5]; 15 mg/kg p.o., time 270 min): 376.4 ± 153.0 s | TT ([5]; 15 mg/kg p.o., time 300 min): 261.0 ± 140.8 s | APTT: concentration required to double the clotting time [6]: 0.20 | IWBA ([7]; 10 mg/kg p.o., time 30 min): 89.4 ± 7.6% | IWBA ([7]; 10 mg/kg p.o., time 60 min): 95.8 ± 6.9% | IWBA ([7]; 10 mg/kg p.o., time 90 min): 81.6 ± 8.2% | IWBA ([7]; 10 mg/kg p.o., time 120 min): 94.0 ± 3.2% | IWBA ([7]; 10 mg/kg p.o., time 150 min): 71.4 ± 13.8% | IWBA ([7]; 10 mg/kg p.o., time 180 min): 72.4 ± 19.2% | IWBA ([7]; 10 mg/kg p.o., time 210 min): 54.4 ± 21.0% | IWBA ([7]; 10 mg/kg p.o., time 240 min): 50.6 ± 17.7% | IWBA ([7]; 10 mg/kg p.o., time 270 min): 35.2 ± 17.3% | IWBA ([7]; 10 mg/kg p.o., time 300 min): 48.2 ± 16.9% | IWBA ([7]; 15 mg/kg p.o., time 30 min): 81.4% | IWBA ([7]; 15 mg/kg p.o., time 60 min): 97.4% | IWBA ([7]; 15 mg/kg p.o., time 90 min): 100.0 ± 0% | IWBA ([7]; 15 mg/kg p.o., time 120 min): 100.0 ± 0% | IWBA ([7]; 15 mg/kg p.o., time 150 min): 100.0 ± 0% | IWBA ([7]; 15 mg/kg p.o., time 180 min): 100.0 ± 0% | IWBA ([7]; 15 mg/kg p.o., time 210 min): 93.7% | IWBA ([7]; 15 mg/kg p.o., time 240 min): 82.6% | IWBA ([7]; 15 mg/kg p.o., time 270 min): 81.0% | IWBA ([7]; 15 mg/kg p.o., time 300 min): 69.6% | WBCT ([8]; 10 mg/kg p.o., time 0 min): 13.2 ± 1.1 min | WBCT ([8]; 10 mg/kg p.o., time 30 min): 17.7 ± 1.6 min | WBCT ([8]; 10 mg/kg p.o., time 60 min): 23.6 ± 1.9 min | WBCT ([8]; 10 mg/kg p.o., time 90 min): 21.2 ± 2.9 min | WBCT ([8]; 10 mg/kg p.o., time 120 min): 18.8 ± 1.0 min | WBCT ([8]; 10 mg/kg p.o., time 150 min): 19.2 ± 1.1 min | WBCT ([8]; 10 mg/kg p.o., time 180 min): 18.4 ± 1.5 min | WBCT ([8]; 10 mg/kg p.o., time 210 min): 17.2 ± 2.3 min | WBCT ([8]; 10 mg/kg p.o., time 240 min): 15.8 ± 1.7 min | WBCT ([8]; 10 mg/kg p.o., time 270 min): 16.2 ± 2.1 min | WBCT ([8]; 10 mg/kg p.o., time 300 min): 13.5 ± 0.9 min | WBCT ([8]; 15 mg/kg p.o., time 0 min): 14.6 ± 0.4 min | WBCT ([8]; 15 mg/kg p.o., time 30 min): 24.2 ± 4.7 min | WBCT ([8]; 15 mg/kg p.o., time 60 min): 29.4 ± 4.5 min | WBCT ([8]; 15 mg/kg p.o., time 90 min): 33.0 ± 5.9 min | WBCT ([8]; 15 mg/kg p.o., time 120 min): 34.4 ± 4.4 min | WBCT ([8]; 15 mg/kg p.o., time 150 min): 27.2 ± 3.6 min | WBCT ([8]; 15 mg/kg p.o., time 180 min): 29.5 ± 2.7 min | WBCT ([8]; 15 mg/kg p.o., time 210 min): 34.0 ± 5.9 min | WBCT ([8]; 15 mg/kg p.o., time 240 min): 33.7 ± 6.5 min | WBCT ([8]; 15 mg/kg p.o., time 270 min): 26.0 ± 1.2 min | WBCT ([8]; 15 mg/kg p.o., time 300 min): 23.6 ± 3.3 min
